The subject of test [1] is CT26 colon carcinoma. As to the kind of experiment: CT26 mouse colon carcinoma study, intratumoral or subcutaneous administration. In kind it is in vivo. The procedure:
(§1) The in vivo antitumoral activity of compounds of Formula (I) were studied in the mouse CT26 colon carcinoma model. 10 female 9-week old BALB/c mice/group were implanted subcutaneously with 3×10^5 cells on the flank. Caliper measurements to assess the tumor volume (TV) and body weight measurements were performed daily for the first 8 days and biweekly thereafter until the end of the study. Dosing started when the tumor volumes reached a size of 100 mm^3. The compounds of Formula (I) were tested in two separate studies with their respective vehicle control. Compounds of Formula (I) were dosed 3 times, three days apart, intratumorally at either 25 or 100 μg. The human endpoint is predefined as a TV of 2000 mm^3.
The in vivo antitumoral activity of compounds of Formula (I) after intratumoral of subcutaneous administration was studied in the mouse CT26 colon carcinoma model. The study was performed as in the first paragraph of Example C. Compounds of Formula (I) were dosed 2 or 3 times, three days apart (q3d) or 7 days apart (qw), intratumorally at either […] or subcutaneously at either 1 or 4 mg/kg.

The subject of test [2] is CT26 colon carcinoma. The experiment in a line: CT26 mouse colon carcinoma combination study with anti-CTLA-4 (clone 9H10). It is filed as in vivo. The procedure: as §1
The in vivo antitumoral activity of compounds of Formula (I) in combination with the immune checkpoint inhibitor anti-CTLA-4 (clone 9H10) was studied in the mouse CT26 colon carcinoma model. The study was performed as described in the first paragraph of Example C.

Test [3] concerns the target T1, 293T-Dual hSTING-R232 cells (Homo sapiens, UniProt Q86WV6, H232R).
T1 construct: host or cells: 293T-Dual hSTING-R232 cells (HEK 293T)
As to the kind of experiment: 293T R232 cell reporter assay (HEK 293T reporter assay). In kind it is cell-based. The note with it: digitonin 10 μg/mL, 30 min exposure, 20 h incubation. As to the method: 293T-Dual hSTING-R232 cells (Invivogen) were plated in 96 well plates at a density of 5×10^4 cells per well in DMEM supplemented with 10% FBS, 1% Pen-Strep, 1% non-essential amino acids, 1% glutamine, and 1% HEPES. Assay setup took place after allowing cells to adhere for 48 h. Compounds dissolved in water were serially diluted in dosing buffer containing 10 μg/mL digitonin. Media was aspirated from the cells, and 50 μL buffer with compound was added in triplicate. After 30 min at 37° C., buffer was aspirated and replaced with 100 μL media. Cells were incubated for 20 h at 37° C., 5% CO2. IFN-beta expression and activation of the interferon regulatory factor (IRF) were measured based on luciferase and alkaline phosphatase reporter activity, respectively. Cell viability was determined in parallel.

The test system of test [4] is CT26 colon carcinoma. As to the kind of experiment: CT26 mouse colon carcinoma in vivo efficacy study, intratumoral dosing. Conditions: for Cure Rate (TV < 10 mm^3) / Treatment Failure (TV > 2000 mm^3): 100 μg intratumorally, 3 times, three days apart, BALB/c mice. The procedure: as §1
The mark [5] stands for this setting: three times subcutaneously at 4 mg/kg.
The mark [6] stands for this setting: alkaline phosphatase reporter, read-out: EC50 [μM] IRF reporter.
The mark [7] stands for this setting: luciferase reporter, read-out: EC50 [μM] IRN-β reporter.
The mark [8] stands for this setting: EC50 [μM] IRF reporter, alkaline phosphatase reporter.
Setting [9] is: EC50 [μM] IRN-β reporter, luciferase reporter.

Each structure is given as a SMILES string. Read-outs that look alike come from different tables or passages of the source.

T1 sequence (Q86WV6 whole entry H232R): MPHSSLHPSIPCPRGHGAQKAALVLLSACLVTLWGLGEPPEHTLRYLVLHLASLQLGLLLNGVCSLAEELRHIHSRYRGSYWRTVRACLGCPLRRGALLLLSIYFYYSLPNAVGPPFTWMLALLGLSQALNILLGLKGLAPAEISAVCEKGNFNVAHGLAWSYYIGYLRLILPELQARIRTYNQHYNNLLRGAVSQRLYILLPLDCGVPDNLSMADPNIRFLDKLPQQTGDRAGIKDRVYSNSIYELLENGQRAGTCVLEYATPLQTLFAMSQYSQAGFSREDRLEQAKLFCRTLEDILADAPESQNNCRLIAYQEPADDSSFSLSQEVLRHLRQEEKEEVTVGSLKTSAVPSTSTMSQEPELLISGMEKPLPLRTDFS

With `CO[C@H]1[C@H]2OP(=O)(O)OC[C@]34C[C@@H]3[C@@H](n3cnc5c(N)ncnc53)[C@H](O)[C@@H]4O[P@@](=O)([S][Na])OC[C@H]1O[C@H]2n1cnc2c(=O)[nH]c(N)nc21` [Compound 10-b], the “animals with complete tumor suppression” value in the test on CT26 colon carcinoma [1] (dosed intratumorally at 100 μg) is listed as 4/10; in the test with CT26 colon carcinoma [1] (setting [5]) it was 1/10. Also, the “delay of tumor growth” value in the test on CT26 colon carcinoma [1] (setting [5]) is listed as “further delay in tumor growth”; in the test on CT26 colon carcinoma [2] (three IT doses of 25 g), “approx. 8 days”. The “delay of tumor growth compared to the vehicle group” value with CT26 colon carcinoma [1] (two subcutaneous administrations at 4 mg/kg) is recorded as “approx. 8 days”. Besides, in the test on CT26 colon carcinoma [2] (25 μg, IT/3 × q3d), the “Complete Tumor Suppression (TV < 10 mm^3)” value was found to be 0. Moreover, the “Treatment Failure (TV > 2000 mm^3)” value in the test with CT26 colon carcinoma [2] (25 μg, IT/3 × q3d) is 100.

For orientation: EC50 means the concentration giving half of the maximal effect. In the case of `Nc1nc2c(ncn2C2OC34COC2C3OP(=O)(O)OCC23CC2C(n2cnc5c(N)ncnc52)C(O)C3OP(=O)(S)OC4)c(=O)[nH]1` (centres unmarked) [Compound 1-21b], the EC50 in test [3] (setting [6]) was below 0.25 µM. For the same compound, in test [3] (setting [7]), the EC50 is below 0.25 µM. In the test on CT26 colon carcinoma [4], the “Cure Rate (TV < 10 mm^3)” value is given as 50% and the “Treatment Failure (TV > 2000 mm^3)” value was 50%.

With `Nc1nc2c(ncn2[C@@H]2O[C@@H]3CO[P@](=O)([S][Na])O[C@H]4[C@@H](O)[C@H](n5cnc6c(N)ncnc65)[C@H]5C[C@]54COP(=O)([O-])O[C@@H]2[C@@H]3F)c(=O)[nH]1.[Na+]` [Compound 1-22b], the EC50 in test [3] (setting [6]) and in test [3] (setting [7]) was below 0.25 µM each time. For the same compound, in the test on CT26 colon carcinoma [4], the “Cure Rate (TV < 10 mm^3)” value was determined as 56%. The “Treatment Failure (TV > 2000 mm^3)” value in the test with CT26 colon carcinoma [4] worked out at 44%.

`Nc1ncnc2c1ncn2[C@H]1[C@H](O)[C@@H]2O[P@@](=O)([S][Na])OC[C@H]3O[C@@H](n4cnc5c(=O)[nH]cnc54)[C@H](F)[C@@H]3OP(=O)(O)OC[C@@]23C[C@H]13` [Compound 1-20b]: the 50% effective concentration (EC50) in test [3] (setting [8]) and in test [3] (setting [9]) was below 0.25 µM throughout. Besides, the “Cure Rate (TV < 10 mm^3)” value in the test on CT26 colon carcinoma [4] was determined as 50%. In the test with CT26 colon carcinoma [4], the “Treatment Failure (TV > 2000 mm^3)” value turned out to be 50%.

With `CO[C@H]1[C@H]2OP(=O)([O-])OC[C@@]34C[C@@H]3[C@@H](n3cnc5c(N)ncnc53)[C@H](O)[C@@H]4OP(=O)([O-])OC[C@H]1O[C@H]2n1cnc2c(=O)[nH]c(N)nc21.[Na+].[Na+]` [Compound 1-1], the EC50 in test [3] (setting [6]) and in test [3] (setting [7]) was below 0.25 µM in each case. In addition, in the test with CT26 colon carcinoma [4], the “Cure Rate (TV < 10 mm^3)” value is listed as 40%. Besides, the “Treatment Failure (TV > 2000 mm^3)” value in the test with CT26 colon carcinoma [4] was 40%. Besides, the “tumor-free animals at the end of the study” value with CT26 colon carcinoma [4] (three intratumoral doses of 100 g, 10 mice/group) is listed as 4 out of 10.

As for `CO[C@H]1[C@H]2OP(=O)(O)OC[C@]34C[C@@H]3[C@@H](n3cnc5c(N)ncnc53)[C@H](O)[C@@H]4O[P@](=O)([S][Na])OC[C@H]1O[C@H]2n1cnc2c(=O)[nH]c(N)nc21` [Compound 1-10a], the EC50 in test [3] (setting [8]) and in test [3] (setting [9]) was 0.25 to 100 µM each time.

In the case of `Nc1nc2c(ncn2[C@H]2[C@H](O)[C@@H]3OP(=O)(O)OC[C@H]4C[C@@H](n5cnc6c(N)ncnc65)[C@H](O)[C@@H]4OP(=O)(O)OC[C@@]34C[C@H]24)c(=O)[nH]1` [Compound 1-23], the EC50 in test [3] (setting [6]) and in test [3] (setting [7]) was 0.25 to 100 µM each time.

Regarding `CO[C@H]1[C@H]2OP(=O)(O)OC[C@@H]3[C@@H](OP(=O)(O)OC[C@H]1O[C@H]2n1cnc2c(=O)[nH]c(N)nc21)[C@@H](O)[C@]1(n2cnc4c(N)ncnc42)C[C@@H]31` [Compound 1-7], the EC50 in test [3] (setting [6]) and in test [3] (setting [7]) was below 0.25 µM in each case.

Turning to `CO[C@H]1[C@H]2OP(=O)(O)OC[C@]34C[C@@H]3[C@@H](n3cnc5c(N)ncnc53)[C@H](O)[C@@H]4OP(=O)(O)OC[C@H]1O[C@H]2c1scc2c(=O)[nH]c(N)nc12` [Compound 1-12], the EC50 in test [3] (setting [6]) and in test [3] (setting [7]) was above 100 µM each time.
